Test results published in publication PMC6009921, “Carbon- versus sulphur-based zinc binding groups for carbonic anhydrase inhibitors?” (Journal of Enzyme Inhibition and Medicinal Chemistry, 2018).

Biological target: T1, hCA VII (Homo sapiens, UniProt P43166)
T1 construct: gene CA7; recombinant, obtained in-house
Assay: stopped-flow CO2 hydration
Type: biochemical
Conditions: read-out: KI (μM)^a^,^b / hCA VII

T1 sequence (P43166 whole entry): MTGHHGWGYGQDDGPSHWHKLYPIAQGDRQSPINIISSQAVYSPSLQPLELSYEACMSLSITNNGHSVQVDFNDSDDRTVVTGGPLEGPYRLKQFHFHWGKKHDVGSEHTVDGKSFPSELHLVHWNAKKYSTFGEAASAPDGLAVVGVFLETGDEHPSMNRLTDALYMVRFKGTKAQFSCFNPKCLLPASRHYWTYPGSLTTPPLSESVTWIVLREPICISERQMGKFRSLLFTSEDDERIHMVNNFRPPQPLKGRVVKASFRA

Row | SMILES | Ki [µM]
1 | NNC(=O)c1ccccc1 [compound 8, hydrazide 8] | 76.7
2 | CONC(=O)c1ccccc1 [compound 10, methylated hydroxamate 10] | 72.2
3 | NNS(=O)(=O)c1ccccc1 [compound 3, N-amino sulphonamide 3] | 8.56
4 | O=C(NO)c1ccccc1 [compound 9, hydroxamic acid 9] | 70.7
5 | CONS(=O)(=O)c1ccccc1 [compound 5, N-methoxysulphonamide 5] | 9.56
6 | NC(=O)c1ccccc1 [compound 7, carboxamide 7] | 76.8
7 | O=S(=O)(O)c1ccccc1 [compound 1, benzenesulphonic acid] | 7.93
8 | O=S(=O)(NO)c1ccccc1 [compound 4, N-hydroxysulphonamide 4] | 8.73
9 | O=C(O)c1ccccc1 [compound 6, benzoic acid] | 92.2

Biological target: T2, hCA VI (Homo sapiens, UniProt P23280)
T2 construct: gene CA6; recombinant, obtained in-house
Assay: stopped-flow CO2 hydration
Type: biochemical
Conditions: read-out: KI (μM)^a^,^b / hCA VI
Description: stopped-flow CO2 hydration on hCA VI

T2 sequence (P23280 18-308): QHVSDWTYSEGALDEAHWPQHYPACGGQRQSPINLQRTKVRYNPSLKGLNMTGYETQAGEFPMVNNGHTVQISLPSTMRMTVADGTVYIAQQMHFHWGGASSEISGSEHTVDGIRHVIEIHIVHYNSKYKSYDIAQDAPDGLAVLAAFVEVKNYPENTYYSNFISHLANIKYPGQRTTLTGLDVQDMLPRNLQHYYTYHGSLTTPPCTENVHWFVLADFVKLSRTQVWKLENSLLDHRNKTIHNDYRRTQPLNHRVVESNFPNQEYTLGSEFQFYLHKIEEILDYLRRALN

Row | SMILES | Ki [µM]
10 | NNC(=O)c1ccccc1 [compound 8, hydrazide 8] | 63.5
11 | CONC(=O)c1ccccc1 [compound 10, methylated hydroxamate 10] | 89.9
12 | NS(=O)(=O)c1ccccc1 [compound 2, benzenesulphonamide] | 0.097
13 | NNS(=O)(=O)c1ccccc1 [compound 3, N-amino sulphonamide 3] | 74.4
14 | O=C(NO)c1ccccc1 [compound 9, hydroxamic acid 9] | 78.1
15 | CONS(=O)(=O)c1ccccc1 [compound 5, N-methoxysulphonamide 5] | 27
16 | NC(=O)c1ccccc1 [compound 7, carboxamide 7] | 82.6
17 | O=S(=O)(O)c1ccccc1 [compound 1, benzenesulphonic acid] | 8.8
18 | O=S(=O)(NO)c1ccccc1 [compound 4, N-hydroxysulphonamide 4] | 86.2
19 | O=C(O)c1ccccc1 [compound 6, benzoic acid] | 91.6

Biological target: T3, hCA II (Homo sapiens, UniProt P00918)
T3 construct: gene CA2; recombinant, obtained in-house
Assay: stopped-flow CO2 hydration
Type: biochemical
Conditions: CO2 1.7-17 mM, 20 mM Hepes pH 7.5, 20 mM Na2SO4, 15 min preincubation, room temperature; read-out: KI (μM)^a^,^b / hCA II

Row | SMILES | Ki [µM]
20 | O=C(NO)c1ccccc1 [compound 9, hydroxamic acid 9] | 179

Same assay, conditions: read-out: KI (μM)^a^,^b / hCA II

Row | SMILES | Ki [µM]
21 | NNC(=O)c1ccccc1 [compound 8, hydrazide 8] | 231
22 | CONC(=O)c1ccccc1 [compound 10, methylated hydroxamate 10] | 341
23 | NNS(=O)(=O)c1ccccc1 [compound 3, N-amino sulphonamide 3] | 5.31
24 | CONS(=O)(=O)c1ccccc1 [compound 5, N-methoxysulphonamide 5] | 8.96
25 | NC(=O)c1ccccc1 [compound 7, carboxamide 7] | 93.2
26 | O=S(=O)(O)c1ccccc1 [compound 1, benzenesulphonic acid] | 9.3
27 | O=S(=O)(NO)c1ccccc1 [compound 4, N-hydroxysulphonamide 4] | 5.47
28 | O=C(O)c1ccccc1 [compound 6, benzoic acid] | 30.1

Same assay, conditions: read-out: hCA II

Row | SMILES | Ki [µM]
29 | NC(=O)Oc1ccccc1 [7a, carbamate 7a] | 110

Biological target: T4, hCA III (Homo sapiens, UniProt P07451)
T4 construct: gene CA3; recombinant, obtained in-house
Assay: stopped-flow CO2 hydration
Type: biochemical
Conditions: read-out: KI (μM)^a^,^b / hCA III
Description: stopped-flow CO2 hydration on hCA III

T4 sequence (P07451 2-260): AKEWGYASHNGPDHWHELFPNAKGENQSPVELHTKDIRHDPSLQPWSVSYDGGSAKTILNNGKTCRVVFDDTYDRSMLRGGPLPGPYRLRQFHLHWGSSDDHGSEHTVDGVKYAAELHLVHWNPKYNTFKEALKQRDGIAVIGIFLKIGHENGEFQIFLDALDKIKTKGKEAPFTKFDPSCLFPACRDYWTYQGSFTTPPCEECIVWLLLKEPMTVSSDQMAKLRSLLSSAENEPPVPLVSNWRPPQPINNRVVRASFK

Row | SMILES | Ki [µM]
30 | NNC(=O)c1ccccc1 [compound 8, hydrazide 8] | 40.2
31 | CONC(=O)c1ccccc1 [compound 10, methylated hydroxamate 10] | 37.3
32 | NS(=O)(=O)c1ccccc1 [compound 2, benzenesulphonamide] | 2.26
33 | NNS(=O)(=O)c1ccccc1 [compound 3, N-amino sulphonamide 3] | 6.28
34 | O=C(NO)c1ccccc1 [compound 9, hydroxamic acid 9] | 44.8
35 | CONS(=O)(=O)c1ccccc1 [compound 5, N-methoxysulphonamide 5] | 5.72
36 | NC(=O)c1ccccc1 [compound 7, carboxamide 7] | 35.7
37 | O=S(=O)(O)c1ccccc1 [compound 1, benzenesulphonic acid] | 6.63
38 | O=S(=O)(NO)c1ccccc1 [compound 4, N-hydroxysulphonamide 4] | 4.42
39 | O=C(O)c1ccccc1 [compound 6, benzoic acid] | 35.7

Biological target: T5, mCA XIII (Mus musculus, UniProt Q9D6N1)
T5 construct: gene Ca13; recombinant, obtained in-house
Assay: stopped-flow CO2 hydration
Type: biochemical
Conditions: read-out: KI (μM)^a^,^b / mCA XIII
Description: stopped-flow CO2 hydration on mCA XIII

T5 sequence (Q9D6N1 whole entry): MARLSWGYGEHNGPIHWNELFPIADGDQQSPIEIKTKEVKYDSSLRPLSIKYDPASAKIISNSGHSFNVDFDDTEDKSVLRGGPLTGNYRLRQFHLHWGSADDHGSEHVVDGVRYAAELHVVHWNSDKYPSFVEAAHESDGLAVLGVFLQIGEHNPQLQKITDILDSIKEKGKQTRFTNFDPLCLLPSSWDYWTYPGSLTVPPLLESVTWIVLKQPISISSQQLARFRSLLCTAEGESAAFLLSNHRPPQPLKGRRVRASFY

Row | SMILES | Ki [µM]
40 | NS(=O)(=O)c1ccccc1 [compound 2, benzenesulphonamide] | 0.1
41 | NNS(=O)(=O)c1ccccc1 [compound 3, N-amino sulphonamide 3] | 5.96
42 | O=S(=O)(O)c1ccccc1 [compound 1, benzenesulphonic acid] | 8.72

Biological target: T6, hCA IV (Homo sapiens, UniProt P22748)
T6 construct: gene CA4; recombinant, obtained in-house
Assay: stopped-flow CO2 hydration
Type: biochemical
Conditions: read-out: KI (μM)^a^,^b / hCA IV
Description: stopped-flow CO2 hydration on hCA IV

T6 sequence (P22748 19-284): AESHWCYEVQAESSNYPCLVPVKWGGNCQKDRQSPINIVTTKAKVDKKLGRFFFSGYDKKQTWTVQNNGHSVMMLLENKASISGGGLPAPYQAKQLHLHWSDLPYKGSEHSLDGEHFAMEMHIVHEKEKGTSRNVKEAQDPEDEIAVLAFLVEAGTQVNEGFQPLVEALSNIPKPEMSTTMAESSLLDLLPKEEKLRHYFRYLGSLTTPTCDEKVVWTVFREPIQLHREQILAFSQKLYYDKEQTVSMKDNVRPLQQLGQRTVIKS

Row | SMILES | Ki [µM]
43 | NNC(=O)c1ccccc1 [compound 8, hydrazide 8] | 335
44 | CONC(=O)c1ccccc1 [compound 10, methylated hydroxamate 10] | 111
45 | NS(=O)(=O)c1ccccc1 [compound 2, benzenesulphonamide] | 7.96
46 | NNS(=O)(=O)c1ccccc1 [compound 3, N-amino sulphonamide 3] | 78.4
47 | O=C(NO)c1ccccc1 [compound 9, hydroxamic acid 9] | 84.7
48 | CONS(=O)(=O)c1ccccc1 [compound 5, N-methoxysulphonamide 5] | 39.5
49 | NC(=O)c1ccccc1 [compound 7, carboxamide 7] | 381
50 | O=S(=O)(O)c1ccccc1 [compound 1, benzenesulphonic acid] | 9.1
51 | O=S(=O)(NO)c1ccccc1 [compound 4, N-hydroxysulphonamide 4] | 24.6
52 | O=C(O)c1ccccc1 [compound 6, benzoic acid] | 434

Biological target: T7, hCA I (Homo sapiens, UniProt P00915)
T7 construct: gene CA1; recombinant, obtained in-house
Assay: stopped-flow CO2 hydration
Type: biochemical
Conditions: CO2 1.7-17 mM, 20 mM Hepes pH 7.5, 20 mM Na2SO4, 15 min preincubation, room temperature; unreliable: table and text (69.8) disagree
Description: stopped-flow CO2 hydration on hCA I

T7 sequence (P00915 2-261): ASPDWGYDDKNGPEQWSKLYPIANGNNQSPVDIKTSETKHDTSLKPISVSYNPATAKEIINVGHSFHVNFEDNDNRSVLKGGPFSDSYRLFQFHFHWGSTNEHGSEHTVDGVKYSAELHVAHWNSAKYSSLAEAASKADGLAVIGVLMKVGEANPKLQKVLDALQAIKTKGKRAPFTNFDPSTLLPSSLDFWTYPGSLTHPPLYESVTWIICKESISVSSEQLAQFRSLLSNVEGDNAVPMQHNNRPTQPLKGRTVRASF

Row | SMILES | KI (μM)^a^,^b / hCA I [µM]
53 | NNS(=O)(=O)c1ccccc1 [compound 3, N-amino sulphonamide 3] | 9.8

Biological target: T8, hCA VB (Homo sapiens, UniProt Q9Y2D0)
T8 construct: gene CA5B; recombinant, obtained in-house
Assay: stopped-flow CO2 hydration
Type: biochemical
Conditions: read-out: KI (μM)^a^,^b / hCA VB
Description: stopped-flow CO2 hydration on hCA VB

T8 sequence (Q9Y2D0 34-317): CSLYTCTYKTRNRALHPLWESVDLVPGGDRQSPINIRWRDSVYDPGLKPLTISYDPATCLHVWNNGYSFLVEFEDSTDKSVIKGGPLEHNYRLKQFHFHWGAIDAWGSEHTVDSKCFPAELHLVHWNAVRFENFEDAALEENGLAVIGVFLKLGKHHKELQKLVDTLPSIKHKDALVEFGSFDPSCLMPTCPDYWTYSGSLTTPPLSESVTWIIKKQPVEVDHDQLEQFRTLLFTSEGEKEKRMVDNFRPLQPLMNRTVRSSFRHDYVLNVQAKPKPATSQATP

Row | SMILES | Ki [µM]
54 | NNC(=O)c1ccccc1 [compound 8, hydrazide 8] | 75.9
55 | CONC(=O)c1ccccc1 [compound 10, methylated hydroxamate 10] | 57.3
56 | NS(=O)(=O)c1ccccc1 [compound 2, benzenesulphonamide] | 8.82
57 | NNS(=O)(=O)c1ccccc1 [compound 3, N-amino sulphonamide 3] | 95.2
58 | O=C(NO)c1ccccc1 [compound 9, hydroxamic acid 9] | 53.6
59 | CONS(=O)(=O)c1ccccc1 [compound 5, N-methoxysulphonamide 5] | 10.7
60 | NC(=O)c1ccccc1 [compound 7, carboxamide 7] | 83.1
61 | O=S(=O)(O)c1ccccc1 [compound 1, benzenesulphonic acid] | 79.8
62 | O=S(=O)(NO)c1ccccc1 [compound 4, N-hydroxysulphonamide 4] | 67.9
63 | O=C(O)c1ccccc1 [compound 6, benzoic acid] | 9.6

Biological target: T9, hCA VA (Homo sapiens, UniProt P35218)
T9 construct: gene CA5A; recombinant, obtained in-house
Assay: stopped-flow CO2 hydration
Type: biochemical
Conditions: read-out: KI (μM)^a^,^b / hCA VA
Description: stopped-flow CO2 hydration on hCA VA

T9 sequence (P35218 39-305): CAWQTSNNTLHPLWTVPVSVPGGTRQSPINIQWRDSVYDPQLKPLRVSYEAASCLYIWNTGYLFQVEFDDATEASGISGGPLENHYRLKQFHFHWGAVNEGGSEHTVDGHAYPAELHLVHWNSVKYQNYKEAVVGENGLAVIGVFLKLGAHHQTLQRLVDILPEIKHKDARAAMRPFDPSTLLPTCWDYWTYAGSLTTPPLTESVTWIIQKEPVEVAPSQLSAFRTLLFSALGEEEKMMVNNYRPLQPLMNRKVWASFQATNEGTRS

Row | SMILES | Ki [µM]
64 | NNC(=O)c1ccccc1 [compound 8, hydrazide 8] | 59.3
65 | CONC(=O)c1ccccc1 [compound 10, methylated hydroxamate 10] | 89.1
66 | NS(=O)(=O)c1ccccc1 [compound 2, benzenesulphonamide] | 1.68
67 | NNS(=O)(=O)c1ccccc1 [compound 3, N-amino sulphonamide 3] | 7.75
68 | O=C(NO)c1ccccc1 [compound 9, hydroxamic acid 9] | 67.4
69 | CONS(=O)(=O)c1ccccc1 [compound 5, N-methoxysulphonamide 5] | 6.7
70 | NC(=O)c1ccccc1 [compound 7, carboxamide 7] | 46.8
71 | O=S(=O)(O)c1ccccc1 [compound 1, benzenesulphonic acid] | 80.9
72 | O=S(=O)(NO)c1ccccc1 [compound 4, N-hydroxysulphonamide 4] | 5.28
73 | O=C(O)c1ccccc1 [compound 6, benzoic acid] | 7.12

Biological target: T10, hCA IX (Homo sapiens, UniProt Q16790)
T10 construct: gene CA9; recombinant, obtained in-house
Assay: stopped-flow CO2 hydration
Type: biochemical
Conditions: CO2 1.7-17 mM, 20 mM Hepes pH 7.5, 20 mM Na2SO4, 15 min preincubation, room temperature; read-out: KI (μM)^a^,^b / hCA IX^c
Description: stopped-flow CO2 hydration on hCA IX

Row | SMILES | Ki [µM]
74 | O=C(NO)c1ccccc1 [compound 9, hydroxamic acid 9] | 45.9

Same assay, conditions: read-out: KI (μM)^a^,^b / hCA IX^c

Row | SMILES | Ki [µM]
75 | NNC(=O)c1ccccc1 [compound 8, hydrazide 8] | 48.4
76 | CONC(=O)c1ccccc1 [compound 10, methylated hydroxamate 10] | 57.5
77 | NNS(=O)(=O)c1ccccc1 [compound 3, N-amino sulphonamide 3] | 51.7
78 | CONS(=O)(=O)c1ccccc1 [compound 5, N-methoxysulphonamide 5] | 64.3
79 | NC(=O)c1ccccc1 [compound 7, carboxamide 7] | 3.67
80 | O=S(=O)(O)c1ccccc1 [compound 1, benzenesulphonic acid] | 9.55
81 | O=S(=O)(NO)c1ccccc1 [compound 4, N-hydroxysulphonamide 4] | 60.3
82 | O=C(O)c1ccccc1 [compound 6, benzoic acid] | 66.5

Same assay, conditions: read-out: KI (μM)^a^,^b / hCA VI

Row | SMILES | Ki [µM]
83 | NS(=O)(=O)c1ccccc1 [compound 2, benzenesulphonamide] | 0.097

Same assay, conditions: read-out: hCA IX

Row | SMILES | Ki [µM]
84 | NC(=O)Oc1ccccc1 [7a, carbamate 7a] | 10.1
85 | NS(=O)(=O)Nc1ccccc1 [2b, sulphamide 2b] | 0.071

Biological target: T11, hCA XIV (Homo sapiens, UniProt Q9ULX7)
T11 construct: gene CA14; recombinant, obtained in-house
Assay: stopped-flow CO2 hydration
Type: biochemical
Conditions: read-out: KI (μM)^a^,^b / hCA XIV
Description: stopped-flow CO2 hydration on hCA XIV

T11 sequence (Q9ULX7 16-290 limits assumed): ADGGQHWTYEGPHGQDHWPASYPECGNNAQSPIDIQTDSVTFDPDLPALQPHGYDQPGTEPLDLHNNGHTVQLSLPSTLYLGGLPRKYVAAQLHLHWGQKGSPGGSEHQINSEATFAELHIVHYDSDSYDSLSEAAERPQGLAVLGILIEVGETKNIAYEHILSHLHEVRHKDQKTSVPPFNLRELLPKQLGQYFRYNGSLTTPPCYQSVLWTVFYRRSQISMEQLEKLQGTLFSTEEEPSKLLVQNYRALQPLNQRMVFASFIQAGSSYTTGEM

Row | SMILES | Ki [µM]
86 | NNC(=O)c1ccccc1 [compound 8, hydrazide 8] | 0.99
87 | CONC(=O)c1ccccc1 [compound 10, methylated hydroxamate 10] | 10
88 | NS(=O)(=O)c1ccccc1 [compound 2, benzenesulphonamide] | 0.092
89 | NNS(=O)(=O)c1ccccc1 [compound 3, N-amino sulphonamide 3] | 3.81
90 | O=C(NO)c1ccccc1 [compound 9, hydroxamic acid 9] | 0.94
91 | CONS(=O)(=O)c1ccccc1 [compound 5, N-methoxysulphonamide 5] | 1.57
92 | NC(=O)c1ccccc1 [compound 7, carboxamide 7] | 27
93 | O=S(=O)(O)c1ccccc1 [compound 1, benzenesulphonic acid] | 8.79
94 | O=S(=O)(NO)c1ccccc1 [compound 4, N-hydroxysulphonamide 4] | 1.66
95 | O=C(O)c1ccccc1 [compound 6, benzoic acid] | 0.98

Biological target: T12, hCA XII (Homo sapiens, UniProt O43570)
T12 construct: gene CA12; recombinant, obtained in-house
Assay: stopped-flow CO2 hydration
Type: biochemical
Conditions: read-out: KI (μM)^a^,^b / hCA XII^c

T12 sequence (O43570 30-289 limits assumed): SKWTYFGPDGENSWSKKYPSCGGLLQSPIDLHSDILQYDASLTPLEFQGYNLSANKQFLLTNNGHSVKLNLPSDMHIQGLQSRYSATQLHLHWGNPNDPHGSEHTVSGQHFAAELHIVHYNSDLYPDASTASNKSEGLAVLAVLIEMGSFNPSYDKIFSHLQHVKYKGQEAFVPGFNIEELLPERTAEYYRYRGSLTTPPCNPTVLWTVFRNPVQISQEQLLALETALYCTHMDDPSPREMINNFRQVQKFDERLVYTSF

Row | SMILES | Ki [µM]
96 | NNC(=O)c1ccccc1 [compound 8, hydrazide 8] | 45
97 | CONC(=O)c1ccccc1 [compound 10, methylated hydroxamate 10] | 28.5
98 | NNS(=O)(=O)c1ccccc1 [compound 3, N-amino sulphonamide 3] | 2.42
99 | CONS(=O)(=O)c1ccccc1 [compound 5, N-methoxysulphonamide 5] | 8.32
100 | NC(=O)c1ccccc1 [compound 7, carboxamide 7] | 11.2
101 | O=S(=O)(O)c1ccccc1 [compound 1, benzenesulphonic acid] | 6.45
102 | O=S(=O)(NO)c1ccccc1 [compound 4, N-hydroxysulphonamide 4] | 1.53
103 | O=C(O)c1ccccc1 [compound 6, benzoic acid] | 20.4

Same assay, conditions: read-out: hCA XII

Row | SMILES | Ki [µM]
104 | NC(=O)Oc1ccccc1 [7a, carbamate 7a] | 2.81

Biological target: T7, hCA I
Assay: stopped-flow CO2 hydration
Type: biochemical
Conditions: CO2 1.7-17 mM, 20 mM Hepes pH 7.5, 20 mM Na2SO4, 15 min preincubation, room temperature; read-out: KI (μM)^a^,^b / hCA I

Row | SMILES | Ki [µM]
105 | O=C(NO)c1ccccc1 [compound 9, hydroxamic acid 9] | 83.1
106 | O=C(O)c1ccccc1 [compound 6, benzoic acid] | 730

Same assay, conditions: read-out: KI (μM)^a^,^b / hCA I

Row | SMILES | Ki [µM]
107 | NNC(=O)c1ccccc1 [compound 8, hydrazide 8] | 91.2
108 | CONC(=O)c1ccccc1 [compound 10, methylated hydroxamate 10] | 72.5
109 | CONS(=O)(=O)c1ccccc1 [compound 5, N-methoxysulphonamide 5] | > 1000
110 | NC(=O)c1ccccc1 [compound 7, carboxamide 7] | 324
111 | O=S(=O)(O)c1ccccc1 [compound 1, benzenesulphonic acid] | 8.65
112 | O=S(=O)(NO)c1ccccc1 [compound 4, N-hydroxysulphonamide 4] | 2.73

Same assay, conditions: read-out: hCA I

Row | SMILES | Ki [µM]
113 | NC(=O)Oc1ccccc1 [7a, carbamate 7a] | 720
